Patent US11135188B2, “Method and composition to improve absorption of therapeutic agents” (Bayer HealthCare LLC, priority 2009, dated 2021)

Test: Compatibility: degradation products of aspirin/carbonate blends by HPLC
Type: physicochemical
Description: The degradation products of various combinations of aspirin and various carbonates were determined for different combinations of aspirin and different grades and sources of carbonates to evaluate the compatibility and stability. Milling for about fifteen minutes appeared to slightly induce the production of free salicylic acid (FSA), but not to a significant extent. […] The results are shown in Table 3 (all blend percentages are weight percentages obtained using High Performance Liquid Chromatography (HPLC))

- Acetyl Salicylic Salicylic Acid ASSA: 0.00%
- FSA (free salicylic acid): 0.00%
Structure (SMILES): CC(=O)Oc1ccccc1C(=O)O [100% Aspirin-Milled 15 min, Aspirin]
